Test results taken from patent US8142759B2, “Glyco-molecular imaging method for grade classification of liver fibrosis and its glyco-molecular imaging agent thereof” (Institute of Nuclear Energy Research, priority 2007, dated 2012).

Assay: Storage stability at room temperature
Type: physicochemical

| storage stability at room temperature (water dissolution) | storage time at room temperature (air/water stability) | SMILES |
| --- | --- | --- |
| much unstable | – | O=C(O)CN(CCN1CC(=O)OC(=O)C1)CCN1CC(=O)OC(=O)C1 [DTPA anhydride] |
| – | one | O=C(CN(CCSC(c1ccccc1)(c1ccccc1)c1ccccc1)CC(=O)ON1C(=O)CCC1=O)NCCSC(c1ccccc1)(c1ccccc1)c1ccccc1 [SOCTA, succinimidyl-3,6-diaza-5-oxo-3-[2-((triphenyl-methyl)thio)ethyl]-8-[(triphenylmethyl)-thio]octanoate] |
